Molecular target: Mycobacterium thermoresistible (Mtr) LpqY (Mycolicibacterium thermoresistibile, UniProt G7CES0)
Assay type: binding
Details: single dose MST screen against LpqY

Chain of Mycobacterium thermoresistible (Mtr) LpqY (G7CES0 29-471): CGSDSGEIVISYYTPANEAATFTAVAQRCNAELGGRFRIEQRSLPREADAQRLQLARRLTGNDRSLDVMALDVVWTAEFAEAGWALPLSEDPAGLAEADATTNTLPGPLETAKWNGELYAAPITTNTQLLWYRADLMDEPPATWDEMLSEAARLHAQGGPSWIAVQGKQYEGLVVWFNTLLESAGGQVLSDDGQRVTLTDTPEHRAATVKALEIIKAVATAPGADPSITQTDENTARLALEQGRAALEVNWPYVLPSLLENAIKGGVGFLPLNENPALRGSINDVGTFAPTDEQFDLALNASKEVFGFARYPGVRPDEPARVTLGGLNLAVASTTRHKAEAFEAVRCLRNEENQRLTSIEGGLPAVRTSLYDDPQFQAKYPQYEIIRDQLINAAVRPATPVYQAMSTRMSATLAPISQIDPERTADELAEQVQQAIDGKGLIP

First: COc1cccc(NC(=O)c2c(NC(=O)c3cccnc3)sc3c2CCC3)c1 [MMV228911]
Second: COc1cccc(-c2cc3c(Nc4cccnc4)nccc3[nH]2)c1 [MMV392832]
The “Pathogen Box screen signal/noise ratio” value of the first is higher: 2.2 for the first, 2.1 for the second.

First: FC(F)(F)c1ccc(N(c2cccnc2)C2CCN(c3ccc(C(F)(F)F)cn3)CC2)cc1 [MMV689243]
Second: CCc1nc2ccc(Cl)cn2c1C(=O)NCc1ccc(N2CCC(c3ccc(OC(F)(F)F)cc3)CC2)cc1 [MMV687696]
The “Pathogen Box screen signal/noise ratio” value of the first is higher: 1.4 for the first, 1.0 for the second.

Compared with `Cc1cc(C)n2nc(C(=O)Nc3cc(C(F)(F)F)ccc3N3CCOCC3)nc2n1` [MMV019087], `Cn1ncc2c(N3CCOCC3)nc(NCCc3c[nH]c4ccccc34)nc21` [MMV676382] is lower in “Pathogen Box screen signal/noise ratio” value: 1.2 for the first, 0.7 for the second.

Going from `Cc1cccnc1NC(=O)c1cccc(OCc2c(C)noc2C)c1` [MMV688793] to `CCCCc1ccc(C(=O)Nc2nccc3ccccc23)nc1` [MMV687254], the “Pathogen Box screen signal/noise ratio” value falls from 0.4 to 0.0729.

Going from `CCCn1c(CNc2ccccc2O)nc2ccccc21` [MMV676445] to `CCCn1c(NC(=O)c2ccc3ccccc3n2)nc2ccccc21` [MMV1030799], the “Pathogen Box screen signal/noise ratio” value rises from 0.8 to 0.9.

Going from `Cc1ccc2nc(Cl)c(CNCc3cccs3)cc2c1` [MMV676439] to `Cc1ccc2cc(C3NC(=O)c4ccccc4N3)c(Cl)nc2c1` (centres unmarked) [MMV019807], the “Pathogen Box screen signal/noise ratio” value rises from 0.278 to 0.7.

Going from `NC(CC(=O)c1ccc(Cl)cc1Cl)C(Cl)(Cl)Cl` (centres unmarked) [MMV676468] to `NC(=O)c1cc(Br)ccc1OCCOc1ccccc1` [MMV687243], the “Pathogen Box screen signal/noise ratio” value falls from 0.8 to 0.4.

Going from `CC(C)(C)c1ccc(N[C@@H]2CCCC[C@H]2NC(=O)c2ccco2)cc1` [MMV675969] to `CCC(C)NC(=O)c1ccc(NC(=O)C2(c3ccccc3)CCCC2)cc1` (centres unmarked) [MMV146306], the “Pathogen Box screen signal/noise ratio” value falls from 0.3 to -0.653.

Compared with `CC1CC1C(=O)NC1CCN(CC2(c3ccccc3)CCCCC2)CC1` (centres unmarked) [MMV020120], `O=C(C1CCCCC1)N1CC(=O)N2CCc3ccccc3C2C1` (centres unmarked) [MMV002529] is lower in “Pathogen Box screen signal/noise ratio” value: 1.1 for the first, 0.167 for the second.

Compared with `O=C(NC1=NCCS1)c1sc2cc(F)ccc2c1Cl` [MMV676584], `O=C(Nc1nnc(-c2ccc(Cl)s2)o1)c1ccc(Cl)s1` [MMV676501] is lower in “Pathogen Box screen signal/noise ratio” value: 1.1 for the first, 0.556 for the second.

Compared with `CN1CCCN(C(c2ccccc2)c2ccc(Cl)cc2)CC1` (centres unmarked) [MMV004168], `CC(=O)N1CCN(c2ccc(Oc3ccc(Cl)cc3O)cc2)CC1` [MMV688330] is higher in “Pathogen Box screen signal/noise ratio” value: 0.9 for the first, 1.8 for the second.

Going from `CN(C)c1cc(NC(=O)Nc2ccccc2)c2ccccc2n1` [MMV006901] to `CC(C)C(NC(=O)Cc1cccc2ccccc12)C(=O)Nc1cccc(C#N)c1` (centres unmarked) [MMV020591], the “Pathogen Box screen signal/noise ratio” value falls from 1.2 to 0.25.

First: CCc1ccc(S(=O)(=O)Nc2cc(CN3CCN(CCC(C)C)CC3)ccc2C)cc1 [MMV688124]
Second: Cc1cc(NC(=O)c2ccc(S(=O)(=O)N(Cc3ccccc3)C(C)C)cc2)no1 [MMV007133]
The “Pathogen Box screen signal/noise ratio” value of the first is higher: 0.85 for the first, 0.4 for the second.

Going from `C[C@H](c1ccc2c(c1)CCCC2)N(C)c1ncc2c(N)nc(N)nc2n1` [MMV690103] to `COc1ccc(Oc2ccc([C@@H](C)N(C)c3ncc4c(N)nc(N)nc4n3)cc2)cc1` [MMV690102], the “Pathogen Box screen signal/noise ratio” value rises from 1.5 to 2.1.

Going from `CC1CS(=O)(=O)CCN1/N=C/c1ccc([N+](=O)[O-])o1` (centres unmarked) [MMV001499] to `CC(=O)NC[C@H]1CN(c2ccc(N3CCSCC3)c(F)c2)C(=O)O1` [MMV688756], the “Pathogen Box screen signal/noise ratio” value falls from 2.4 to 1.1.

Going from `Brc1cncc(-c2cc(NCCCn3ccnc3)nc(-c3ccccc3)n2)c1` [MMV661713] to `O=C(Nc1cccc(-c2ccc(NCCCN3CCCC3)nc2)c1)c1ccccc1` [MMV023953], the “Pathogen Box screen signal/noise ratio” value rises from 0.5 to 2.4.

Compared with `CNC(=O)CNc1nc(-c2ccccn2)nc2scc(-c3ccccc3)c12` [MMV1029203], `Cc1nc(-c2ccccn2)nc(N(C)CCc2ccccc2)c1Cl` [MMV658988] is higher in “Pathogen Box screen signal/noise ratio” value: 0.463 for the first, 2.9 for the second.

Compared with `CCc1ccc(C(NCc2nc(N)nc(N(C)C)n2)C(C)C)cc1` (centres unmarked) [MMV1019989], `Cc1cc(NCCc2ccccc2)nc(NC(=N)Nc2ccc(Cl)cc2)n1` [MMV021660] is higher in “Pathogen Box screen signal/noise ratio” value: 0.5 for the first, 1.6 for the second.

First: Cn1c(=O)c2c(S(C)(=O)=O)snc2n(C)c1=O [MMV687251]
Second: CCCCS(=O)(=O)Nc1ccc2cnn(C)c2c1 [MMV687145]
The “Pathogen Box screen signal/noise ratio” value of the first is lower: 0.0729 for the first, 1.4 for the second.

Compared with `OCc1ccc(-c2cncc(Nc3cccc(Cl)c3)c2)cc1` [MMV026468], `CS(=O)(=O)c1cccc(-c2cnc3[nH]cc(-c4ccc(CCC(=O)O)cc4)c3c2)c1` [MMV026020] is higher in “Pathogen Box screen signal/noise ratio” value: 0.563 for the first, 1.4 for the second.

Going from `O=C(OCc1ccccc1)N1CCC(c2cc(-c3ccncc3)c(-c3ccc(F)cc3)[nH]2)CC1` [MMV688509] to `O=C(Nc1ccccc1)c1ccc(-c2cc3ccncc3cc2OC2CCNCC2)s1` [MMV024035], the “Pathogen Box screen signal/noise ratio” value rises from 0.0833 to 2.8.

Going from `c1ccc(C[C@@H]2CN(c3nccc(Oc4ccc(-n5ccnc5)cc4)n3)CCN2)cc1` [MMV687749] to `c1ccc(Oc2ccc(-c3cc(N4CCNCC4)[nH]n3)cc2)cc1` [MMV687706], the “Pathogen Box screen signal/noise ratio” value falls from 0.0357 to -0.0238.

Going from `COc1ccc(Nc2ccccc2NC(=O)c2ccc(O)nc2)cc1` [MMV676554] to `Cc1ccc(Oc2ccc(NC(=O)CNc3ccccc3N3CCCC3=O)cc2)cc1` [MMV020512], the “Pathogen Box screen signal/noise ratio” value rises from 1.8 to 3.4.

Going from `Cc1ccc(C(=O)Nc2ccc(S(=O)(=O)O)c3cc(S(=O)(=O)O)cc(S(=O)(=O)O)c23)cc1NC(=O)c1cccc(NC(=O)Nc2cccc(C(=O)Nc3cc(C(=O)Nc4ccc(S(=O)(=O)O)c5cc(S(=O)(=O)O)cc(S(=O)(=O)O)c45)ccc3C)c2)c1` [MMV637953] to `CCCCc1ccc(NC(=O)Nc2ccc(O[C@H]3CCCC[C@@H]3N(C)c3ccccc3)c(F)c2)cc1` [MMV676063], the “Pathogen Box screen signal/noise ratio” value falls from 0.7 to 0.0.

Going from `CC(C)(C)c1cnc(NC(=O)c2ccccc2O)s1` [MMV495543] to `CCC(=O)Nc1ccccc1C(=O)Nc1ccccn1` [MMV202553], the “Pathogen Box screen signal/noise ratio” value rises from 0.8 to 1.4.

Going from `CCS(=O)(=O)N(Cc1ccco1)Cc1cc2ccc(C)cc2nc1O` [MMV676398] to `O=C(c1ccco1)N(CCCn1ccnc1)c1nc2c(Cl)cccc2s1` [MMV688936], the “Pathogen Box screen signal/noise ratio” value rises from -0.167 to 1.4.

Compared with `COc1ccc(C2=NN(C3CCCCCC3)C(=O)[C@@H]3CC=CC[C@H]23)cc1OCCCCOc1ccc(-c2nn[nH]n2)cc1` [MMV690027], `COc1ccc(-c2nnc3ccc(-c4cccc(C(C)C)c4)cn23)cc1OC` [MMV688313] is higher in “Pathogen Box screen signal/noise ratio” value: 0.9 for the first, 1.1 for the second.

Going from `CO[C@@H]1CN(c2ccc(C#CC3(O)CN4CCC3CC4)c(Cc3ccccc3)n2)C[C@H]1O` (some centres unmarked) [MMV688415] to `COc1cccc(-n2nnnc2S(=O)(=O)Cc2ccccc2)c1` [MMV676388], the “Pathogen Box screen signal/noise ratio” value falls from 1.0 to 0.952.

Compared with `CCCCOC(=O)Nc1cc2nc(C3CCCCC3)[nH]c2cc1N1CCCC1` [MMV687730], `O=C(NCCN1CCCC1)c1cc(NCCN2CCOCC2)nc2ccc(Cl)cc12` [MMV634140] is lower in “Pathogen Box screen signal/noise ratio” value: 1.3 for the first, 0.9 for the second.

First: CC1(C)Cc2c(c(N3CCOCC3)nc3snc(Br)c23)CO1 [MMV687794]
Second: CC(C)n1ncc2c(C(=O)NCC(c3cccs3)N3CCOCC3)cc(-c3ccccc3)nc21 (centres unmarked) [MMV676406]
The “Pathogen Box screen signal/noise ratio” value of the first is lower: 0.0714 for the first, 2.6 for the second.

Going from `COc1ccc(C(=N)N)cc1-c1cn(-c2ccc(C(=N)N)cc2)nn1` [MMV675998] to `COc1ccc(C2=NCCN2)cc1-c1cn(-c2cccc(C3=NCCN3)c2)nn1` [MMV688547], the “Pathogen Box screen signal/noise ratio” value falls from 1.0 to 0.9.

Going from `O=C(CN1CCOCC1)Nc1ccc2ncnc(Nc3ccc(OCc4cccc(F)c4)c(Cl)c3)c2c1` [MMV688274] to `CC(C)(C)OC(=O)N1CCC(Cn2nc(-c3cnc4ccccc4c3)c3c(N)ncnc32)CC1` [MMV688364], the “Pathogen Box screen signal/noise ratio” value falls from 1.0 to 0.6.

First: NCCCC(N)(C(=O)O)C(F)F (centres unmarked) [MMV001625]
Second: NCC(c1cccs1)S(=O)(=O)c1ccccc1 (centres unmarked) [MMV688557]
The “Pathogen Box screen signal/noise ratio” value of the first is lower: 0.316 for the first, 0.569 for the second.

Compared with `CN1CCN(c2nccc3nc(-c4ccc(F)c(F)c4)[nH]c23)CC1` [MMV676260], `CC(C)n1nc(-c2cc3c(Cl)cccc3[nH]2)c2c(N)ncnc21` [MMV688417] is higher in “Pathogen Box screen signal/noise ratio” value: 0.635 for the first, 1.3 for the second.

`COC(=O)Nc1nc2cc(C(=O)c3ccccc3)ccc2[nH]1` [MMV003152] and `CNC(=O)C1Cc2ccccc2N1C(=O)Cc1ccc(F)cc1` (centres unmarked) [MMV188296] are the same in “Pathogen Box screen signal/noise ratio” value: 1.9 for the first, 1.9 for the second.

First: CC(C)(C(=O)Nc1ccc(F)cc1)n1cc(-c2ccccc2F)cn1 [MMV687239]
Second: O=C(Nc1ccc2c(c1)B(O)OC2)c1ccccc1C(F)(F)F [MMV652003]
The “Pathogen Box screen signal/noise ratio” value of the first is higher: 0.467 for the first, 0.444 for the second.

Compared with `OCCc1ccc(Nc2nccc(-c3nnc4ccccn34)n2)cc1` [MMV028694], `Cc1nn(C)cc1C(C)Nc1nncc(-c2ccc(C(F)(F)F)cc2)n1` (centres unmarked) [MMV019993] is lower in “Pathogen Box screen signal/noise ratio” value: 1.5 for the first, 0.25 for the second.

Compared with `c1ccc(Oc2ccc(-c3cncc(-c4ccc5[nH]ccc5c4)n3)cc2)cc1` [MMV688178], `Cc1ccc2c(c1C)NC(=O)C21NN=C(c2ccccc2)S1` (centres unmarked) [MMV019189] is higher in “Pathogen Box screen signal/noise ratio” value: 1.0 for the first, 1.4 for the second.

Going from `c1csc(-c2cnc3sc(NCC4CCOCC4)nn23)c1` [MMV010764] to `CCc1ccc([C@@H]2C[C@H](C(F)(F)F)n3ncc(C(=O)NCc4ccc(OC)cc4)c3N2)cc1` [MMV687180], the “Pathogen Box screen signal/noise ratio” value rises from 0.667 to 1.9.

First: CCN(CC)C(=O)N1CCN(C)CC1 [MMV002816]
Second: CC(C)(C)CN1C(=O)C(c2ccccc2)(c2ccccc2)N=C1N [MMV026550]
The “Pathogen Box screen signal/noise ratio” value of the first is higher: 1.5 for the first, 0.455 for the second.

Reference: paper PMC9579956 (RSC Medicinal Chemistry, 2022)
